Assay results from US8642643B2, “CXCR2 antagonists” (Sanofi, priority 2006, dated 2014).

These compounds were tested against T1, human CXCR2 (Homo sapiens, UniProt P25025) (assay: CXCR2 inhibition: calcium fluorescence assay (FLIPR)). Conditions: chemokine IL-8; CHO-K1 cells stably transfected with human CXCR2 and Gα16; calcium response (Fluo-4).
T1 construct: expressed in transfected cells; host or cells: CHO-K1
T1 sequence (P25025 1-360): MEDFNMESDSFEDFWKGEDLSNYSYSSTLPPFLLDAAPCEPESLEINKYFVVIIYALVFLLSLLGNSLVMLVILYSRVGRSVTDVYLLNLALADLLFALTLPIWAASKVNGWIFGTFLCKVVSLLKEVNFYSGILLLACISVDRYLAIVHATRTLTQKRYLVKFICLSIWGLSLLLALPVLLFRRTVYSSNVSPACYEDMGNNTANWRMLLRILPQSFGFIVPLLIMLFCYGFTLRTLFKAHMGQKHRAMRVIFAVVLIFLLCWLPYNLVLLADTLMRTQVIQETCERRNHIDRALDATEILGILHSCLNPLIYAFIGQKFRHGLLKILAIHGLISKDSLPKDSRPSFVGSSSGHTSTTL
Type: cell-based
Description: Determination of CXCR2 Inhibition: Calcium Fluorescence Assay (FLIPR)
The assay is based on the detection of intracellular calcium changes detected by the selective, calcium-chelating dye, Fluo-4 (Molecular Probes). A large fluorescence intensity increase is observed upon calcium association with Fluo-4. The dye is delivered to the cell interior using an acetoxymethylester form of Fluo-4, where the intracellular esterase activity results in the charged species being released and trapped within the cytoplasm of the cell. […] By co-expressing the CXCR2 receptor and the promiscuous Gα16 protein, activation of this chemokine receptor is directed into this phospholipase C cascade resulting in intracellular calcium mobilization.
The CHO-K1 cells stably transfected with human CXCR2 and the promiscuous Gα16 protein were maintained in a log phase of growth at 37° C. and 5% CO2 in the following media: Iscove's, 10% FBS, 1× Penicillin-Streptomycin, 400 μg/ml G418 and 350 μg/ml Zeocin. Approximately 24-48 hours prior to the assay, 20,000-30,000 cells/well were plated onto a 96-well black/clear bottomed assay plate (Becton Dickinson) with a well volume of 180 μl. For dye loading the culture medium was carefully removed and replaced by 100 μl/well dye solution (4 μM Fluo-4 in 135 mM NaCl, 5 mM KCl, 1 mM magnesium sulphate, 5 mM glucose, 20 mM hepes, 2.5 mM probenecid; pH 7.4). Cells were incubated for 1 h at 37° C., and then washed 3× with buffer. After washing 90 μl buffer/well were left. Increasing concentrations of compound was added in 45 μl buffer (4× concentrated) followed by 10 min incubation at 37° C. Then the chemokine (10-100 nM) was applied in 45 μl buffer (4× concentrated) and the measurement performed for 2 min. The IC50 value of a compound was determined by calculation of % inhibition of total calcium response to the chemokine.

SMILES	IC50
CC(C)(NC(=O)c1ccc2c(c1OCc1nc3ccccc3s1)CCCC2)C(=O)O [Example 2, 2-{[1-(Benzothiazol-2-ylmethoxy)-5,6,7,8-tetrahydro-naphthalene-2-carbonyl]-amino}-2-methyl-propionic acid]	600 nM
CCC(C)(NC(=O)c1ccc2c(c1OCc1nc3ccccc3s1)CCCC2)C(=O)O (stereo not shown) [Example 5, 2-{[1-(Benzothiazol-2-ylmethoxy)-5,6,7,8-tetrahydro-naphthalene-2-carbonyl]-amino}-2-methyl-butyric acid]	400 nM
CC(C)(NC(=O)c1ccc2c(c1OCc1ccc(C(F)(F)F)cc1F)CCCC2)C(=O)O [Example 8, 2-{[1-(2-Fluoro-4-trifluoromethyl-benzyloxy)-5,6,7,8-tetrahydro-naphthalene-2-carbonyl]-amino}-2-methyl-propionic acid]	1800 nM
CCC(C)(NC(=O)c1ccc2c(c1OCc1ccc(OC(F)(F)F)cc1)CCCC2)C(=O)O (stereo not shown) [Example 9, 2-Methyl-2-{[1-(4-trifluoromethoxy-benzyloxy)-5,6,7,8-tetrahydro-naphthalene-2-carbonyl]-amino}-butyric acid]	1500 nM

Second part, the compound after the results:

IC50	SMILES
1600 nM	Cc1cc(C(=O)NC(C)(C)C(=O)O)c(OCc2ccc(C(F)(F)F)cc2)c2c1CCC2 [Example 11, 2-Methyl-2-{[7-methyl-4-(4-trifluoromethyl-benzyloxy)-indane-5-carbonyl]-amino}-propionic acid]
700 nM	CC(C)(NC(=O)c1ccc2ccsc2c1OCc1ccc(C(F)(F)F)cc1)C(=O)O [Example 12, 2-Methyl-2-{[7-(4-trifluoromethyl-benzyloxy)-benzo[b]thiophene-6-carbonyl]-amino}-propionic acid]
1100 nM	CC(C)(NC(=O)c1ccc2sccc2c1OCc1ccc(C(F)(F)F)cc1)C(=O)O [Example 13, 2-Methyl-2-{[4-(4-trifluoromethyl-benzyloxy)-benzo[b]thiophene-5-carbonyl]-amino}-propionic acid]
